Numbered stars: 1 amine (or outer) side, 2 acyl side, 3 side chain; on linkers, the order of the positions; unused ones are H or OH. Bridge positions count the residues as written; N and C are the ends. Square brackets hold non-standard residues; d marks the D form. Peptide text beside a SMILES is read from it. ξ: configuration not given here. Tyr(3-Br) = N[C@@H](Cc1ccc(O)c(Br)c1)C(=O)O; Tyr(3-Cl) = N[C@@H](Cc1ccc(O)c(Cl)c1)C(=O)O; X2 = Nc1ccc(C[C@@H](N[*:1])C(=O)[*:2])cc1Br; X3 = Nc1ccc(C[C@@H](N[*:1])C(=O)[*:2])cc1Cl; X1 = Nc1ccc(C[C@@H](N[*:1])C(=O)[*:2])cc1F; Tyr(3-F) = N[C@@H](Cc1ccc(O)c(F)c1)C(=O)O; Thr(3ξ) = CC(O)[C@H](N)C(=O)O
Columns and labels:
[1] = molecular target: T1, SST2 (Homo sapiens, UniProt P30874); experiment: Radioligand binding competition assay against [125I]SS-14, SST2; design: expressed in transfected cells; host or cells: CHO-K1 (membrane extracts); details: CHO-K1 membrane extracts
T1 sequence (P30874 whole entry): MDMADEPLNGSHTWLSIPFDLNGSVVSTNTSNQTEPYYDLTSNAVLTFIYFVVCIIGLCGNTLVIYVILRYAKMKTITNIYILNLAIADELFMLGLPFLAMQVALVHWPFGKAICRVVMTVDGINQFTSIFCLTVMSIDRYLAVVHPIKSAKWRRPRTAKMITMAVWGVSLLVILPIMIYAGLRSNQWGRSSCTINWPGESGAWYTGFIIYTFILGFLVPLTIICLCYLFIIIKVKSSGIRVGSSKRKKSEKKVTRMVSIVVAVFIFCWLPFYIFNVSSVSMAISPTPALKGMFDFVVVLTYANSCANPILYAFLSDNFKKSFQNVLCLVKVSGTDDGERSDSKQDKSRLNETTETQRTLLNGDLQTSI
Method: (§1) Reference values thus obtained were compared to historical values obtained from the same receptor and used to validate the experimental session. […] For replicate determinations, the maximum variability tolerated in the test was ±20% around the average of replicates.
(§2) For the SST2 assay, membrane extracts from CHO-K1 cells (accession number NP_001041.1) were used. For the SST5 assay, membrane extracts from CHO-K1 cells (accession number NP_001044.1) were used.
(§3) Nonspecific binding was determined by co-incubation with 200-fold excess of the cold competitor […]. The samples were incubated at a final volume of 0.1 mL at a temperature and for a duration optimized for each receptor and then filtered over filter plates. Filters were washed six times with 0.5 mL of ice-cold washing buffer (optimized for each receptor) and 50 μL of Microscint™ 20 (Packard) were added in each well. The plates were incubated 15 minutes on an orbital shaker and then counted with a TopCount™ for 1 min/well.

[2] = system: AtT-20 cells; experiment: Inhibition of ACTH release from AtT-20 cells (ELISA); assay type: cell-based, mouse; details: 72 hours, in comparison to untreated AtT-20 cells
Method: AtT-20 cells were seeded in 24-well plates (20,000 cells/well) in complete culture medium and incubated overnight at standard incubator conditions (37° C., 5% CO2) to promote adhesion.
(§4) All compounds were studied at concentrations of 5 nM and 10 nM; untreated cell controls were also studied. A biological duplicate was reproduced for each concentration of each drug. The treatment exposure period was 72 h. At the 72 h time-point, cell supernatant was collected and deposited into 1.5 mL test tubes that were then centrifuged at 13,400 rpm for 5 minutes to remove any cell residues. The samples were stored at −80° C. until the time of analysis.
ACTH levels were quantified using a Sandwich-ELISA technique ((Abcam Mouse/Rat ACTH ELISA Kit #ab263880) according to the manufacturer's instructions. Samples and standards were added individually to the wells, followed by the antibody mix. After incubation, the wells were washed to remove unbound material, and development solution was added, which was catalysed, and the reaction was subsequently stopped. The signal was generated proportionally to the amount of bound analyte and the intensity was measured at 450 nm. Results are shown in Table 8 and in FIG. 4A-4E.

[3] = system: GH3 cells; experiment: Inhibition of GH release from GH3 cells (ELISA); assay type: cell-based, rat; details: 72 hours, in comparison to untreated GH3 cells
Method: as §4
GH levels in the supernatant were quantified using a Sandwich ELISA assay (Millipore Rat/Mouse Growth Hormone ELISA kit #EZRMGH-45K) according to the manufacturer's instructions. This method involved the initial capture of supernatant rat GH to the wells of a microtiter plate coated by a pre-titered amount of anti-Growth Hormone polyclonal antibodies. Unbound GH was washed away and then a second biotinylated anti-GH polyclonal antibody was bound to the captured GH molecules. Unbound GH was again washed away and there followed a step of conjugation of horseradish peroxidase to the immobilized biotinylated antibodies. After a final wash step, immobilized antibody-enzyme conjugates were quantified using horseradish peroxidase activities in the presence of the substrate 3,3′,5,5′-tetramethylbenzidine. The enzyme activity was measured spectrophotometrically. Concentrations of rat GH were derived by interpolation from a reference curve generated in the same assay with reference standards of known concentrations of rat GH.

[4] = system: NT-3 cells; experiment: Inhibition of insulin release from NT-3 cells (ELISA); assay type: cell-based, human; details: 5 days, in comparison to untreated NT-3 cells
Method: For the study, 24-well plates were coated with 1 mg/ml of human placenta-derived type IV collagen in 950 μL of PBS) and fully dried. NT3 cells were seeded at a density of 20,000 cells/well in complete culture medium (0.5 ml), including growth factors and incubated overnight at 37° C., with 5% CO2.
All drugs were administered at 5 nM and 10 nM and biological duplicates were studied. The treatment exposure period was 5 days. Untreated cell controls were also studied. After 5 days, the supernatants were collected and deposited into 1.5 ml test tubes that were then centrifuged at 13,400 rpm for 5 minutes to remove any cell residue. The samples were stored at −80° C. until the time of analysis.
Secreted insulin levels in the supernatant were studied using a Sandwich-ELISA method (Elabscience® Human Insulin ELISA Kit #E-EL-H2665) according to the manufacturer's instructions. A micro-ELISA plate was pre-coated with an antibody specific to human insulin. Samples or Standards were added to the micro-ELISA plate wells and combined with the specific antibody. Then a biotinylated detection antibody specific for human insulin and Avidin-Horseradish Peroxidase (HRP) conjugate were added successively to each micro plate well, incubated and then washed. Substrate solution was added to each well. Only those wells that contain human insulin, biotinylated detection antibody and Avidin-HRP conjugate appear blue in color. The enzyme-substrate reaction was terminated by the addition of stop solution. The optical density (OD) was measured spectrophotometrically at a wavelength of 450 nm±2 nm, and the concentration of human insulin was then derived from the standard curve.

[5] = molecular target: T2, SST5 (Homo sapiens, UniProt P35346); experiment: Radioligand binding competition assay against [125I]SS-14, SST5; details: CHO-K1 membrane extracts
T2 construct: expressed in transfected cells; host or cells: CHO-K1 (membrane extracts)
T2 sequence (P35346 whole entry): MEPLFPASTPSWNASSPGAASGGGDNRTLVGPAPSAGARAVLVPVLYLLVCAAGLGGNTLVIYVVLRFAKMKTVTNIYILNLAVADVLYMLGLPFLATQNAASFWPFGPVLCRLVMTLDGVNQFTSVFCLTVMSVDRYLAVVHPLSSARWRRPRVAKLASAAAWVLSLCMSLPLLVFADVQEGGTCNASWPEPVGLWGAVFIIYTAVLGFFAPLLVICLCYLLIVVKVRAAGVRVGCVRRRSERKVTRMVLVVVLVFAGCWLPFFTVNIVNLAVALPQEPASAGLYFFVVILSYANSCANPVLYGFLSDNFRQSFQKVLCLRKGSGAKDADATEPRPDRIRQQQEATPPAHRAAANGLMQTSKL
Method: as §1, §2, §3

[6] = molecular target: T1, SST2; experiment: cAMP HTRF assay; assay type: cell-based; design: expressed in transfected cells; host or cells: CHO-K1; details: CHO-K1 cells expressing SST2, forskolin, 30 min
Method: as §1
CHO-K1 cells (accession number NP_001041.1) expressing human recombinant receptor SST2 were grown prior to the test in media without antibiotic and were detached by gentle flushing with PBS-EDTA (5 mM EDTA).
In a 96-well plate, 12 μl of cells were mixed with 6 μl of the test compound at increasing concentrations and 6 μl of forskolin, then incubated for 30 min at room temperature. The final concentrations of test compound were 0.003 nM; 0.01 nM; 0.03 nM; 0.1 nM; 0.3 nM; 1 nM; 3 nM; 10 nM; 30 nM; and 100 nM. After addition of lysis buffer containing cAMP-d2 and anti-cAMP cryptate detection reagents, the plates were incubated for one hour at room temperature, and fluorescence ratios were measured using an HTRF kit according to the manufacturer specification. The results are shown below in Table 1 and in FIGS. 1A-1D.

[7] = system: NT-3 cells; experiment: Inhibition of proliferation of NT-3 cells (WST-1 assay); assay type: cell-based, human; details: 5 nM, 5 days, in comparison to untreated NT-3 cells
From the text: The water-soluble tetrazolium-1 (WST-1) assay is a standard method for assessing cell viability and proliferation in vitro. The WST-1 assay method is based on the cleavage of tetrazolium salts in culture medium to the dye, formazan, by active mitochondrial enzymes. As viable cell numbers change, so too does the action of mitochondrial dehydrogenases and cleavage of tetrazolium salts. The formation of formazan in the cell medium can be assayed spectrophotometrically as a measure of the number of living cells in the sample well. The effect of various compounds on the cell viability or proliferation rates can be measured as compared with controls or Standards.
All compounds were studied at a dose of 5 nM, and appropriate untreated controls were included.
NT-3 cells were seeded in complete RPMI-1640 medium (100 μl) into a 96-well microplate (20.000 cells/well). This was incubated at 37° C. in 5% CO2 to allow cells to adhere. Cells were treated with the test compounds at a concentration of 5 nM for a period of 5 days without changing the medium and without adding fresh compounds. […] The absorbance of the formazan dye was measured at 450 nm and 690 nm using a microplate reader. […] Average absorbance values were calculated for each group at 450 and 690 nm wavelengths and corrected for blank values. […]

| IC50 ([1]; Table 2, first assay (Day 1)) [nM] | IC50 ([1]; Table 3, second assay (Day 2)) [nM] | IC50 ([5]; Table 6, second assay (Day 2)) [nM] | EC50 [6] [nM] | IC50 ([1]; Table 4, third assay (Day 3)) [nM] | IC50 ([5]; Table 7, third assay (Day 3)) [nM] | Compound | Fold Change in Measured ACTH ([2]; 5 nM) | Fold Change in Measured ACTH ([2]; 10 nM) | Fold Change in Measured GH ([3]; 5 nM) | Fold Change in Measured GH ([3]; 10 nM) | Fold Change in Measured Insulin ([4]; 5 nM) | Fold Change in Measured Insulin ([4]; 10 nM) | Fold Change in Proliferation [7] |
| --- | --- | --- | --- | --- | --- | --- | --- | --- | --- | --- | --- | --- | --- |
| 0.37 |  |  |  |  |  | CC(C)[C@@H]1NC(=O)[C@H](CCCCN)NC(=O)[C@@H](Cc2c[nH]c3ccccc23)NC(=O)[C@H](Cc2ccc(O)c(Cl)c2)NC(=O)[C@H](NC(=O)[C@H](N)Cc2ccc(N)c(I)c2)CSSC[C@H](C(=O)N[C@H](C(N)=O)C(C)O)NC1=O (single isomer, unassigned) [Compound 1, (4-amino-3-I)-D-Phe-c[Cys-(3-Cl)-Tyr-D-Trp-Lys-Val-Cys]-Thr-NH2] |  |  |  |  |  |  |  |
| 0.74 |  |  |  |  |  | CC(C)[C@@H]1NC(=O)[C@H](CCCCN)NC(=O)[C@@H](Cc2c[nH]c3ccccc23)NC(=O)[C@H](Cc2ccc(O)c(Cl)c2)NC(=O)[C@H](NC(=O)[C@H](N)Cc2ccc(N)c(I)c2)CSSC[C@H](C(=O)N[C@H](C(N)=O)C(C)O)NC1=O (single isomer, unassigned) [Compound 2, (4-amino-3-Cl)-D-Phe-c[Cys-(3-I)-Tyr-D-Trp-Lys-Val-Cys]-Thr-NH2] |  |  |  |  |  |  |  |
|  | 0.48 | 0.86 | 0.25 |  |  | CC(C)[C@@H]1NC(=O)[C@H](CCCCN)NC(=O)[C@@H](Cc2c[nH]c3ccccc23)NC(=O)[C@H](Cc2ccc(O)c(Cl)c2)NC(=O)[C@H](NC(=O)[C@H](N)Cc2ccc(N)c(Cl)c2)CSSC[C@H](C(=O)N[C@H](C(N)=O)C(C)O)NC1=O (stereo partly drawn) [Compound 3, (4-amino-3-Cl)-D-Phe-c[Cys-(3-Cl)-Tyr-D-Trp-Lys-Val-Cys]-Thr-NH2] (H-[X3][dC][Tyr(3-Cl)][dW]KV[dC][Thr(3ξ)]-NH2; disulfide 2-7) | 0.68 | 0.76 | 1.04 | 1.02 | 0.62 | 0.56 |  |
|  |  |  | 1.91 | 2.6 | 3.41 | CC(C)[C@@H]1NC(=O)[C@H](CCCCN)NC(=O)[C@@H](Cc2c[nH]c3ccccc23)NC(=O)[C@H](Cc2ccc(O)c(F)c2)NC(=O)[C@H](NC(=O)[C@H](N)Cc2ccc(N)c(F)c2)CSSC[C@H](C(=O)N[C@H](C(N)=O)C(C)O)NC1=O (stereo partly drawn) [Compound 4, (4-amino-3-F)-D-Phe-c[Cys-(3-F)-Tyr-D-Trp-Lys-Val-Cys]-Thr-NH2] (H-[X1][dC][Tyr(3-F)][dW]KV[dC][Thr(3ξ)]-NH2; disulfide 2-7) | 0.37 | 0.37 | 0.94 | 0.76 | 0.09 | 0.10 | 0.93 |
|  |  |  | 0.16 | 0.54 | 0.79 | CC(C)[C@@H]1NC(=O)[C@H](CCCCN)NC(=O)[C@@H](Cc2c[nH]c3ccccc23)NC(=O)[C@H](Cc2ccc(O)c(Br)c2)NC(=O)[C@@H](NC(=O)[C@H](N)Cc2ccc(N)c(Br)c2)CSSC[C@@H](C(=O)N[C@H](C(N)=O)[C@@H](C)O)NC1=O [Compound 5, (4-amino-3-Br)-D-Phe-c[Cys-(3-Br)-Tyr-D-Trp-Lys-Val-Cys]-Thr-NH2] (H-[X2]C[Tyr(3-Br)][dW]KVCT-NH2; disulfide 2-7) | 0.68 | 0.77 | 0.72 | 0.75 | 0.12 | 0.18 | 0.52 |
